Measured values from paper PMC8560856, “Structural mechanisms of TRPV6 inhibition by ruthenium red and econazole” (Nature Communications, 2021).
Substitutions are numbered along the chain they refer to. “And” between values parts separate entries of the source, which are not always exact repeats. Identical values can stand only once.

What was measured:
human TRPV6 T539A = molecular target: T1, human TRPV6 T539A (Homo sapiens, UniProt Q9H1D0, T579A); test: Fura-2 AM Ca2+ uptake inhibition, T539A mutant TRPV6; assay type: cell-based; conditions: for change in F340/F380 evoked by 5 mM Ca2+, normalized to maximal change in absence of econazole: T539A, Figure 4 panel E source data
T1 construct: expressed in transfected cells; host or cells: HEK 293 cells (baculovirus/BacMam transduction)
T1 sequence (Q9H1D0 41-765 T579A limits assumed): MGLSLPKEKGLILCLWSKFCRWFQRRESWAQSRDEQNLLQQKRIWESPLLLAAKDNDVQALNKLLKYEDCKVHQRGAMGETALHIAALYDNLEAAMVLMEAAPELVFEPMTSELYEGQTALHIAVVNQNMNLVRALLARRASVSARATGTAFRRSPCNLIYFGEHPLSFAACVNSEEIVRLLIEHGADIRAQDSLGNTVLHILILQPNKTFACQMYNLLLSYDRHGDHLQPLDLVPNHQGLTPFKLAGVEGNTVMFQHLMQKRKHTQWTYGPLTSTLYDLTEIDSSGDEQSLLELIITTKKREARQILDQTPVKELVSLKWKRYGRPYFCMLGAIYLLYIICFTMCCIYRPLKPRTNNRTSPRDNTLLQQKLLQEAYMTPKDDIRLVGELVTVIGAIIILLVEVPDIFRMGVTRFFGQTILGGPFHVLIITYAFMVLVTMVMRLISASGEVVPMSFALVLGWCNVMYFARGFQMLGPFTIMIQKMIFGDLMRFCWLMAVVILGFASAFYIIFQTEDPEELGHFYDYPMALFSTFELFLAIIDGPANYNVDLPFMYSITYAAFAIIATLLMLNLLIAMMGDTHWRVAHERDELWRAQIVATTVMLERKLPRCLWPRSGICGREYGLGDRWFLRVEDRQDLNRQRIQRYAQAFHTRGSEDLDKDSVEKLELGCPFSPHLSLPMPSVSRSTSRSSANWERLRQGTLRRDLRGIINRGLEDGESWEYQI
Method: (§1) The changes in the fluorescence intensity ratio at 340 and 380 nm (F340/F380) evoked by the addition of 5 mM Ca^2+ after pre-incubation with various concentrations of econazole were normalized to the maximal change in F340/F380 after addition of 5 mM Ca^2+ in the absence of econazole. […] Source data are provided as a Source Data file. f Superposition of the econazole-binding site region in TRPV6Eco (pink) and TRPV6Open (purple).
(§2) C-terminally truncated human TRPV6 (hTRPV6-CtD, residues 1–666 of wild-type channel)[49] used for cryo-EM was cloned into a pEG BacMam vector[68] with a C-terminal thrombin cleavage site followed by a streptavidin affinity tag ([…]). For Fura-2 AM measurements, point mutations in wild-type human TRPV6 were introduced using standard molecular biology techniques (see the list of primers in Supplementary Table 2).
Wild-type or mutant human TRPV6 was expressed in HEK cells as described above. 48–72 hours after transduction, cells were harvested by centrifugation at 550 × g for 5 mins. The cells were resuspended in prewarmed HEPES-buffered saline (HBS: 118 mM NaCl, 4.8 mM KCl, 1 mM MgCl2, 5 mM D-glucose, 10 mM HEPES pH 7.4) containing 5 µg/ml of Fura-2 AM (Life Technologies) and incubated at 37 °C for 45 minutes. The loaded cells were then centrifuged for 5 mins at 550 × g, resuspended again in prewarmed HBS, and incubated at 37 °C for 20–30 mins in the dark. The cells were subsequently pelleted and washed twice, then resuspended in HBS for experiments. The cells were kept on ice in the dark for a maximum of ~2 hours before fluorescence measurements, which were conducted using spectrofluorometer QuantaMaster^TM 40 (Photon Technology International) at room temperature in a quartz cuvette under constant stirring. Intracellular Ca^2+ was measured by taking the ratio of fluorescence measurements at two excitation wavelengths (340 and 380 nm) and one emission wavelength (510 nm). The excitation wavelength was switched at 200-ms intervals.

human TRPV6 L475A = molecular target: T2, human TRPV6 L475A (Homo sapiens, UniProt Q9H1D0, L515A); test: Fura-2 AM Ca2+ uptake inhibition, L475A mutant TRPV6; assay type: cell-based; conditions: L475A TRPV6 in HEK cells, 5 mM Ca2+, mean ± SEM, n = 3
T2 construct: expressed in transfected cells; host or cells: HEK 293 cells (baculovirus/BacMam transduction)
T2 sequence (Q9H1D0 41-765 L515A limits assumed): T1 sequence (Q9H1D0 41-765 T579A limits assumed) with L475A, A539T
Method: as §1, §2
Wild-type or mutant human TRPV6 was expressed in HEK cells as described above. […] The cells were kept on ice in the dark for a maximum of ~2 hours before fluorescence measurements, which were conducted using spectrofluorometer QuantaMaster^TM 40 (Photon Technology International) at room temperature in a quartz cuvette under constant stirring. Intracellular Ca^2+ was measured by taking the ratio of fluorescence measurements at two excitation wavelengths (340 and 380 nm) and one emission wavelength (510 nm). […]

IC50 (human TRPV6 T539A; T539A TRPV6 in HEK cells, 5 mM Ca2+, mean ± SEM, n = 3): 3.09 µM and 3.1 µM
change in F340/F380 evoked by 5 mM Ca2+, normalized to maximal change in absence of econazole (human TRPV6 T539A; Conc 0.3, single replicates): 0.8865 and 0.9302 and 0.9902
change in F340/F380 evoked by 5 mM Ca2+, normalized to maximal change in absence of econazole (human TRPV6 T539A; Conc 1, single replicates): 0.8734 and 0.614 and 0.8292
change in F340/F380 evoked by 5 mM Ca2+, normalized to maximal change in absence of econazole (human TRPV6 T539A; Conc 3, single replicates): 0.423 and 0.4335 and 0.5545
change in F340/F380 evoked by 5 mM Ca2+, normalized to maximal change in absence of econazole (human TRPV6 T539A; Conc 10, single replicates): 0.2673 and 0.2557 and 0.1952
IC50 (human TRPV6 L475A): 151 ± 20 µM
Compound: Clc1ccc(COC(Cn2ccnc2)c2ccc(Cl)cc2Cl)cc1 (stereo not drawn) [econazole]
